Results reported in patent US10967078B2, “Radiolabelled mGluR2 PET ligands” (Janssen Pharmaceutica NV, priority 2014, dated 2021).

Experiment: Biodistribution studies in normal female Wistar rats
Format: in vivo, rat
Details: for % ID blood / SUV blood / % ID bone / SUV bone / % ID carcass / % ID cerebellum / SUV cerebellum / SUV cerebrum + cerebellum / % ID cerebrum total / % ID cortex / SUV cortex / % ID heart / % ID hippocampus / SUV hippocampus / % ID intestines / % ID kidneys / % ID liver / % ID lungs / % ID muscle / SUV muscle / % ID rest of cerebrum / SUV rest of cerebrum / % ID spleen + pancreas / % ID stomach / % ID striatum / SUV striatum / % ID urine / SUV whole cerebrum: mean n=3; for SUV cerebrum + cerebellum / Total brain uptake: cerebrum + cerebellum; for Total brain uptake: n=3
Experimental: High-performance liquid chromatography (HPLC) analysis was performed on a LaChrom Elite® HPLC system (Hitachi, Armstadt, Germany) connected to a UV spectrometer. For the analysis of radiolabeled compounds, the HPLC eluate, after passage through the UV detector, was led over a shielded 3-inch NaI(Tl) scintillation detector connected to a single channel analyser (Gabi box, Raytest, Straubenhardt, Germany). The output signal was recorded and analysed using a GINA Star data acquisition system (Raytest, Straubenhardt, Germany). Radioactivity in samples of biodistribution studies was quantified using an automated gamma counter equipped with a 3-inch NaI(Tl) well crystal coupled to a multichannel analyser (Wallac 2480 Wizard, Wallac, Turku, Finland). Results were corrected for background radiation, physical decay and counter dead time. Animals were housed in individually ventilated cages in a thermoregulated (˜22° C.), humidity-controlled facility under a 12 h/12 h light/dark cycle with access to food and water ad libitum. All animal experiments were conducted according to the Belgian code of practice for the care and use of animals, after approval from the local University Ethics Committee for Animals.
Biodistribution studies of [^11C]-2 and [^11C]-1 were carried out in healthy female Wister rats (body weight 185-220 g) at 2 min, 30 min and 60 min post injection (p.i.) (n=3/time point). Rats were injected with about 18 MBq of the tracer via a tail vein under anesthesia (2.5% isoflurane in O2 at 1 L/min flow rate) and sacrificed by decapitation at the above specified time points. Blood and major organs were collected in tared tubes and weighed. The radioactivity in blood, organs and other body parts was measured using an automated gamma counter. For calculation of total blood radioactivity, blood mass was assumed to be 7% of the body mass. For calculation of total muscle and total bone radioactivity, muscle and bone mass were assumed to be 40% and 12% of the body mass, respectively.

In the case of C[C@H]1CN(c2ccc(C(F)(F)F)cc2)C(=O)c2c(-c3ccnc(N[11CH3])c3)cnn21 [[^11C]-2], the “2 min - to- 30 min wash-out ratio” value (blood) was 1.75, the “% ID blood” value (blood, 2 min p.i.) was 4.9 % ID and the SUV blood (blood, 2 min p.i.) was 0.70 SUV. The “% ID blood” value (blood, 30 min p.i.) was 2.8 % ID, the SUV blood (blood, 30 min p.i.) was 0.40 SUV and the “% ID blood” value (blood, 60 min p.i.) was 2.0 % ID. For the same compound, the SUV blood (blood, 60 min p.i.) was 0.29 SUV, the “2 min - to- 30 min wash-out ratio” value (bone) was 1.34 and the “% ID bone” value (bone, 2 min p.i.) was 7.0 % ID. For the same compound, the SUV bone (bone, 2 min p.i.) was 0.59 SUV, the “% ID bone” value (bone, 30 min p.i.) was 4.9 % ID and the SUV bone (bone, 30 min p.i.) was 0.44 SUV. For the same compound, the “% ID bone” value (bone, 60 min p.i.) was 4.2 % ID, the SUV bone (bone, 60 min p.i.) was 0.37 SUV and the “% ID carcass” value (2 min p.i.) was 39.5 % ID. For the same compound, the “% ID carcass” value (30 min p.i.) was 49.9 % ID, the “% ID carcass” value (60 min p.i.) was 44.8 % ID and the “2 min - to- 30 min wash-out ratio” value (cerebellum) was 2.85. For the same compound, the “% ID cerebellum” value (cerebellum, 2 min p.i.) was 0.279 % ID, the SUV cerebellum (cerebellum, 2 min p.i.) was 1.78 SUV and the “% ID cerebellum” value (cerebellum, 30 min p.i.) was 0.084 % ID. The SUV cerebellum (cerebellum, 30 min p.i.) was 0.62 SUV, the “% ID cerebellum” value (cerebellum, 60 min p.i.) was 0.058 % ID and the SUV cerebellum (cerebellum, 60 min p.i.) was 0.45 SUV. The “SUV cerebrum + cerebellum” value (2 min p.i.) was 1.80 SUV, the Total brain uptake (2 min p.i.) was 1.4 % ID and the Total brain uptake (2 min p.i., listed as [^11C-2]) was 1.44 ± 0.24 % ID. The “SUV cerebrum + cerebellum” value (30 min p.i.) was 0.67 SUV, the Total brain uptake (30 min p.i.) was 0.50 ± 0.05 % ID and the “SUV cerebrum + cerebellum” value (60 min p.i.) was 0.49 SUV. The Total brain uptake (60 min p.i.) was 0.38 ± 0.03 % ID, the “% ID cerebrum total” value (2 min p.i.) was 1.153 % ID and the “% ID cerebrum total” value (30 min p.i.) was 0.408 % ID. For the same compound, the “% ID cerebrum total” value (60 min p.i.) was 0.316 % ID, the “2 min - to- 30 min wash-out ratio” value (cortex) was 3.04 and the “% ID cortex” value (cortex, 2 min p.i.) was 0.064 % ID. The SUV cortex (cortex, 2 min p.i.) was 2.23 SUV, the “% ID cortex” value (cortex, 30 min p.i.) was 0.024 % ID and the SUV cortex (cortex, 30 min p.i.) was 0.74 SUV. For the same compound, the “% ID cortex” value (cortex, 60 min p.i.) was 0.014 % ID, the SUV cortex (cortex, 60 min p.i.) was 0.58 SUV and the “% ID heart” value (2 min p.i.) was 1.0 % ID. For the same compound, the “% ID heart” value (30 min p.i.) was 0.4 % ID, the “% ID heart” value (60 min p.i.) was 0.3 % ID and the “2 min - to- 30 min wash-out ratio” value (hippocampus) was 2.31. For the same compound, the “% ID hippocampus” value (hippocampus, 2 min p.i.) was 0.046 % ID, the SUV hippocampus (hippocampus, 2 min p.i.) was 1.49 SUV and the “% ID hippocampus” value (hippocampus, 30 min p.i.) was 0.018 % ID. The SUV hippocampus (hippocampus, 30 min p.i.) was 0.64 SUV, the “% ID hippocampus” value (hippocampus, 60 min p.i.) was 0.016 % ID and the SUV hippocampus (hippocampus, 60 min p.i.) was 0.49 SUV. For the same compound, the “% ID intestines” value (2 min p.i.) was 12.2 % ID, the “% ID intestines” value (30 min p.i.) was 19.4 % ID and the “% ID intestines” value (60 min p.i.) was 24.2 % ID. For the same compound, the “% ID kidneys” value (2 min p.i.) was 5.3 % ID, the “% ID kidneys” value (30 min p.i.) was 2.2 % ID and the “% ID kidneys” value (60 min p.i.) was 1.6 % ID. The “% ID liver” value (2 min p.i.) was 26.5 % ID, the “% ID liver” value (30 min p.i.) was 16.0 % ID and the “% ID liver” value (60 min p.i.) was 11.9 % ID. The “% ID lungs” value (2 min p.i.) was 6.8 % ID, the “% ID lungs” value (30 min p.i.) was 1.8 % ID and the “% ID lungs” value (60 min p.i.) was 1.3 % ID. For the same compound, the “2 min - to- 30 min wash-out ratio” value (muscle) was 0.46, the “% ID muscle” value (muscle, 2 min p.i.) was 11.1 % ID and the SUV muscle (muscle, 2 min p.i.) was 0.26 SUV. For the same compound, the “% ID muscle” value (muscle, 30 min p.i.) was 24.1 % ID, the SUV muscle (muscle, 30 min p.i.) was 0.56 SUV and the “% ID muscle” value (muscle, 60 min p.i.) was 21.4 % ID. The SUV muscle (muscle, 60 min p.i.) was 0.48 SUV, the “2 min - to- 30 min wash-out ratio” value (rest of cerebrum) was 2.71 and the “% ID rest of cerebrum” value (rest of cerebrum, 2 min p.i.) was 0.944 % ID. The “SUV rest of cerebrum” value (rest of cerebrum, 2 min p.i.) was 1.79 SUV, the “% ID rest of cerebrum” value (rest of cerebrum, 30 min p.i.) was 0.323 % ID and the “SUV rest of cerebrum” value (rest of cerebrum, 30 min p.i.) was 0.66 SUV. The “% ID rest of cerebrum” value (rest of cerebrum, 60 min p.i.) was 0.256 % ID, the “SUV rest of cerebrum” value (rest of cerebrum, 60 min p.i.) was 0.49 SUV and the “% ID spleen + pancreas” value (2 min p.i.) was 2.4 % ID. The “% ID spleen + pancreas” value (30 min p.i.) was 1.4 % ID, the “% ID spleen + pancreas” value (60 min p.i.) was 1.1 % ID and the “% ID stomach” value (2 min p.i.) was 2.3 % ID. The “% ID stomach” value (30 min p.i.) was 6.5 % ID, the “% ID stomach” value (60 min p.i.) was 12.3 % ID and the “2 min - to- 30 min wash-out ratio” value (striatum) was 2.59. For the same compound, the “% ID striatum” value (striatum, 2 min p.i.) was 0.099 % ID, the SUV striatum (striatum, 2 min p.i.) was 1.68 SUV and the “% ID striatum” value (striatum, 30 min p.i.) was 0.043 % ID. The SUV striatum (striatum, 30 min p.i.) was 0.65 SUV, the “% ID striatum” value (striatum, 60 min p.i.) was 0.030 % ID and the SUV striatum (striatum, 60 min p.i.) was 0.49 SUV. For the same compound, the “% ID urine” value (2 min p.i.) was 0.1 % ID, the “% ID urine” value (30 min p.i.) was 0.5 % ID and the “% ID urine” value (60 min p.i.) was 11 % ID. For the same compound, the “2 min - to- 30 min wash-out ratio” value (whole cerebrum) was 2.70, the SUV whole cerebrum (whole cerebrum, 2 min p.i.) was 1.79 SUV and the SUV whole cerebrum (whole cerebrum, 30 min p.i.) was 0.66 SUV. For the same compound, the SUV whole cerebrum (whole cerebrum, 60 min p.i.) was 0.49 SUV.
